Values of other authors as cited in patent US8883831B2, “Compositions and methods for minimizing or reversing agonist-induced desensitization” (PharmoRx Therapeutics, Inc., priority 2008, dated 2014).

Legend:
[1] = target: pentapeptide segment at the carboxy terminal of Filamin A (Homo sapiens, UniProt P21333); details: read-out: binding affinity
[2] = system: chronic pain model in intact rodents; details: ultra-low dose, absence of exogenously administered opioid agonists

Chain of pentapeptide segment at the carboxy terminal of Filamin A (P21333 whole entry): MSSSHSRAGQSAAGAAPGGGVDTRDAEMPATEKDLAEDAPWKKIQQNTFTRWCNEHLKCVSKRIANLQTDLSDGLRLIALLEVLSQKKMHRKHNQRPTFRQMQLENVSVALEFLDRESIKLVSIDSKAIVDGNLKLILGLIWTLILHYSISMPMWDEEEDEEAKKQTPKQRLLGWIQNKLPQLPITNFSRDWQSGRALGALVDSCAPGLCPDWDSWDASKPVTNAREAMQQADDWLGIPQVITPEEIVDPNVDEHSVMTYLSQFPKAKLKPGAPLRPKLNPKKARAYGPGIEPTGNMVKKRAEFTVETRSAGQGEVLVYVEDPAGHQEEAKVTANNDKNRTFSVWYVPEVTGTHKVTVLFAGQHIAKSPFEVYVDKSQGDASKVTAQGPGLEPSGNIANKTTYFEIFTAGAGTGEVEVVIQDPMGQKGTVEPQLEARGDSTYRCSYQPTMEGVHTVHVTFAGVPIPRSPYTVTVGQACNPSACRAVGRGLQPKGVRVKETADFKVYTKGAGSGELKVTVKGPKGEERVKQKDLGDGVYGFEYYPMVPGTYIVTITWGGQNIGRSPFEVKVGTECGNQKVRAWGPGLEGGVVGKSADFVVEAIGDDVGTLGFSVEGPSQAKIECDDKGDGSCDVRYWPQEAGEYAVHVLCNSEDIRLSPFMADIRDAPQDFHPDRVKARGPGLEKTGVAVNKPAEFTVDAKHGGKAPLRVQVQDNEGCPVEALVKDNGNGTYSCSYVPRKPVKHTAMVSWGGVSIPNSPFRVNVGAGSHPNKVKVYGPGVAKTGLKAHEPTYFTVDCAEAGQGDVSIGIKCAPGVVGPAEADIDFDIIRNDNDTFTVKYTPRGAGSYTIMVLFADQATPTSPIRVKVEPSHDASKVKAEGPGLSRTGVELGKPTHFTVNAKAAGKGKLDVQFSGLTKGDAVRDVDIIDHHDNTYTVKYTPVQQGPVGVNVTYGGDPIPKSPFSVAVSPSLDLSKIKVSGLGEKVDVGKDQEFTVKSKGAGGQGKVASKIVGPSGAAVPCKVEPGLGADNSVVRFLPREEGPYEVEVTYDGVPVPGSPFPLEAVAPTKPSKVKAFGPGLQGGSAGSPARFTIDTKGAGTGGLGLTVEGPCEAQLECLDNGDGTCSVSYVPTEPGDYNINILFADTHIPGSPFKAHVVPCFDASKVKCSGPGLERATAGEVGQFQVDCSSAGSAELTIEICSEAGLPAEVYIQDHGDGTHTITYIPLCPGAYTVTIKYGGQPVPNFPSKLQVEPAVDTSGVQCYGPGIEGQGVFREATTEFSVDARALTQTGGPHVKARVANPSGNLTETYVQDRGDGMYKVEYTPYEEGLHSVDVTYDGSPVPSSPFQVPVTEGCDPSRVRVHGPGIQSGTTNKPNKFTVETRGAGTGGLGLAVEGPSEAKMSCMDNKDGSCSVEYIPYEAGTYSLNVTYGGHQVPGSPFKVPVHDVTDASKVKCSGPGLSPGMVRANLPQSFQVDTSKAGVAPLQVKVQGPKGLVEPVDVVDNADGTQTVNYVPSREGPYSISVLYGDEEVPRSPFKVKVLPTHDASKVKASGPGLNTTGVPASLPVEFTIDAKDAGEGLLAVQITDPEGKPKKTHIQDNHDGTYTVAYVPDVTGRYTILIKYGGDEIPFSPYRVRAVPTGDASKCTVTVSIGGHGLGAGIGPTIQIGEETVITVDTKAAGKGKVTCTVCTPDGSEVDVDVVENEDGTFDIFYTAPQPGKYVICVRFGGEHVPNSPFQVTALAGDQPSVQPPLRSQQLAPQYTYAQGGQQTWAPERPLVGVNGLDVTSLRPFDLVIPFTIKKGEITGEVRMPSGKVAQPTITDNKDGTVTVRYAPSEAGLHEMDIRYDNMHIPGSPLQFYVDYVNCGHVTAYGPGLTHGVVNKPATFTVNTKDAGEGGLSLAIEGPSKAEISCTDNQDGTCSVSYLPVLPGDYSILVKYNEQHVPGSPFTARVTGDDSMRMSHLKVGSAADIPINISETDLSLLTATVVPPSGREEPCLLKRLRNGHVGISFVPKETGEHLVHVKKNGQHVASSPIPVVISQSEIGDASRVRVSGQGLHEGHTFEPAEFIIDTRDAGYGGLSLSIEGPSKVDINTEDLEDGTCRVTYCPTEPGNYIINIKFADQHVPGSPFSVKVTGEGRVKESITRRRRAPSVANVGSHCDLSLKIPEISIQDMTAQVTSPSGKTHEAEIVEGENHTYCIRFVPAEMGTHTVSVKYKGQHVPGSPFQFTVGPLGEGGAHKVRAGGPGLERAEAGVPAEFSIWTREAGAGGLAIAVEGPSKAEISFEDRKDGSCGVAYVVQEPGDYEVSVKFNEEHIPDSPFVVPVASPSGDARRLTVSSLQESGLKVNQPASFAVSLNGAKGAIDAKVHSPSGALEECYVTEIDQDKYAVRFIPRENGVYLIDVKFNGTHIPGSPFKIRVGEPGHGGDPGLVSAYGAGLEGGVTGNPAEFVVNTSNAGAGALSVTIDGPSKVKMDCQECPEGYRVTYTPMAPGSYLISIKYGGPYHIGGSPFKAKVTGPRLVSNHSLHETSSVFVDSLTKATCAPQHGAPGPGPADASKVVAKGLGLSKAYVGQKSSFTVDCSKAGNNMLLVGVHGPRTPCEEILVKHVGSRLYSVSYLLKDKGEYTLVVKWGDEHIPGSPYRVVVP

Question: Which Kd [1] does the source give for `O=C1CC[C@@]2(O)[C@H]3Cc4ccc(O)c5c4[C@@]2(CCN3CC2CC2)[C@H]1O5` [naltrexone] here?
Answer: 4 pM

Question: What about the “effect in chronic pain model” value [2] of the same compound?
Answer: no effect
